The CheMixHub viscosity set

Assay: xn = mol fraction of the nth substance listed

C[N+](C)(C)CCO.O=C([O-])CC(=O)O + O
viscosity [mPa·s], 100 kPa
Details | x2 = 0.01 | x2 = 0.17 | x2 = 0.22 | x2 = 0.38 | x2 = 0.5 | x2 = 0.58 | x2 = 0.632 | x2 = 0.673 | x2 = 0.864
293.15 K | 12050 | 4381 | 3565 | 1377 | 622.1 | 312.8 | 206.3 | 145.4 | 14.3
298.15 K | 7430 | 2850 | 2316 | 941.2 | 438.7 | 227 | 152.2 | 108.9 | 11.9
303.15 K | 4675 | 1908 | 1563 | 651 | 317.1 | 168.5 | 114.7 | 83.2 | 9.9
308.15 K | 3076 | 1312 | 1084 | 467.9 | 234.5 | 127.7 | 88.2 | 64.8 | 8.4
313.15 K | 2089 | 924.5 | 770 | 343.9 | 177.1 | 98.6 | 69 | 51.3 | 7
318.15 K | 1453 | 666.7 | 559.7 | 257.6 | 136.3 | 77.5 | 54.9 | 41.2 | 6.2
323.15 K | 1034 | 491 | 415.2 | 199.7 | 106.8 | 61.8 | 44.4 | 33.6 | 5.4

C[N+](C)(C)CCO.O=C([O-])CCCC[C@@H]1SC[C@@H]2NC(=O)N[C@@H]21 + O
viscosity [mPa·s], 100 kPa
Details | x1 = 0.0009415 | x1 = 0.001329 | x1 = 0.001899 | x1 = 0.002797 | x1 = 0.003833 | x1 = 0.005474
293.15 K | 1.044 | 1.058 | 1.079 | 1.111 | 1.146 | 1.2
298.15 K | 0.927 | 0.939 | 0.957 | 0.984 | 1.014 | 1.06
303.15 K | 0.829 | 0.84 | 0.855 | 0.879 | 0.905 | 0.944
308.15 K | 0.747 | 0.756 | 0.77 | 0.79 | 0.812 | 0.846
313.15 K | 0.678 | 0.686 | 0.698 | 0.716 | 0.735 | 0.765

Cn1cc[n+](CC(O)CNCCN(CCNCC(O)C[n+]2ccn(C)c2)CC(O)C[n+]2ccn(C)c2)c1.[Cl-].[Cl-].[Cl-] (stereo unspecified) + O
101.33 kPa, x2 = 0.49
Details | viscosity [mPa·s]
298.15 K | 1956
308.15 K | 779.1
318.15 K | 370.5

NC(=O)c1ccccc1O + O
viscosity [mPa·s], 100 kPa
Details | x1 = 7.39e-05 | x1 = 0.000108 | x1 = 0.000143 | x1 = 0.00018 | x1 = 0.0002156 | x1 = 0.0002516
293.15 K | 1.008 | 1.011 | 1.013 | 1.015 | 1.016 | 1.017
298.15 K | 0.896 | 0.899 | 0.901 | 0.902 | 0.903 | 0.904
303.15 K | 0.803 | 0.805 | 0.807 | 0.808 | 0.81 | 0.811
308.15 K | 0.725 | 0.727 | 0.728 | 0.73 | 0.731 | 0.732
313.15 K | 0.659 | 0.661 | 0.662 | 0.663 | 0.664 | 0.665

O=C(O)[C@@H](O)[C@@H](O)C(=O)O + O
298 K, 101.3 kPa
Details | viscosity [mPa·s]
x1 = 0.000823 | 0.9012
x1 = 0.00165 | 0.9144
x1 = 0.003567 | 0.9399
x1 = 0.005454 | 0.9656
x1 = 0.006888 | 0.99
x1 = 0.00872 | 1.018
x1 = 0.01004 | 1.034
x1 = 0.01181 | 1.066

O=C1CCC[NH+]1C1CCCCC1.O=S(=O)([O-])c1ccccc1 + O
Details | viscosity [mPa·s]
303.15 K, 101 kPa, x1 = 0.01351 | 1.405

O=N[O-].[Na+] + O
viscosity [mPa·s]
Details | x1 = 0.0182 | x1 = 0.0368 | x1 = 0.0558 | x1 = 0.0753 | x1 = 0.0989 | x2 = 0.85 | x2 = 0.87 | x2 = 0.89 | x2 = 0.92 | x2 = 0.94
293.15 K, 101.33 kPa | – | – | – | – | – | 2.834 | 2.248 | 1.903 | 1.494 | 1.374
298.15 K, 101 kPa | 0.97 | 1.09 | 1.24 | 1.43 | 1.73 | – | – | – | – | –
313.15 K, 101 kPa | 0.72 | 0.82 | 0.93 | 1.05 | 1.26 | – | – | – | – | –

O=S(=O)([N-]S(=O)(=O)C(F)(F)C(F)(F)F)C(F)(F)F.[Li+] + O
101 kPa, x1 = 0.3
Details | viscosity [mPa·s]
293.15 K | 145
298.15 K | 114
303.15 K | 89.8
313.15 K | 58.8
323.15 K | 40.2

[Al+3].[Cl-].[Cl-].[Cl-] + O
Details | viscosity [mPa·s]
293.15 K, 101 kPa, x1 = 0.039 | 5.58
